{"source": "patent US5286737A", "about": "“Method for inhibiting aromatase” (Kureha Kagaku Kogyo Kabushiki Kaisha, priority 1992, dated 1994)", "key": {"aromatase": {"molecular_target": "T1, aromatase (Homo sapiens, UniProt P11511)", "T1 construct": "microsomes arising from human placenta (0.1 mg/ml, protein concentration); from tissue; host or cells: human placenta microsomes", "T1 sequence (P11511 1-503)": "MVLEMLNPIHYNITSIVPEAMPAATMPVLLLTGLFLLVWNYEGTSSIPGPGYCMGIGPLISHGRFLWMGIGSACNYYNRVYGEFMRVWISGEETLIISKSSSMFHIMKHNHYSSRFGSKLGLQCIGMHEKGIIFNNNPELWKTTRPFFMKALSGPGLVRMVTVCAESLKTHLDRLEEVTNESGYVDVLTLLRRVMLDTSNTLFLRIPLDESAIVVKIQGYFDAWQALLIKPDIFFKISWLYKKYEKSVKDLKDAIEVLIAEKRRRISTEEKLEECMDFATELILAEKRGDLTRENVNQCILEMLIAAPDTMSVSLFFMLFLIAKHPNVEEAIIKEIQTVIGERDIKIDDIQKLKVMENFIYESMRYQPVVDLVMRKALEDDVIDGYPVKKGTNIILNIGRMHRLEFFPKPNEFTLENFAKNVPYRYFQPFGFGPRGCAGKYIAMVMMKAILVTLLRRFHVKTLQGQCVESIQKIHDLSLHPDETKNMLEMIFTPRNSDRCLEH", "test": "Aromatase inhibitory activity (H14COOH release from [19-14C]4-androstene-3,17-dione, human placenta microsomes)", "type": "biochemical", "experimental": "The aromatase inhibitory activity was measured in the manner described by Covey, D. F., Biochem. and Biophys. Res. Commun., 157 (1) 81-86 (1988). The inhibitory activity of the aromatase with the compounds was evaluated in a 50% inhibitory concentration (IC50) of the aromatase activity.\nAromatase activity was measured in the manner described by Covey, D. F., Biochem. Biophys. Res. Commun. 157 (1), 81-86 (1988).\nThe inhibitory activity of the aromatase with the compounds was evaluated in 50% inhibitory concentration (IC50) of the aromatase.\nAn aromatase base was taken from microsomes of human placenta and [19-^14 C]4-androstene-3,17 dione was used as a substrate. H^14 COOH was released into a reaction mixture after aromatization and its radioactivity was measured to evaluate the aromatase activity.\nThe inhibitory activity of the aromatase and the concentration of the compounds were depicted in a graph from which the IC50 was calculated.\nTo a solution of phosphoric acid buffer, [19-^14 C]4-androstene-3,17-dione (1×10^-6 M, 2 kBq/ml), microsomes arising from human placenta (0.1 mg/ml, protein concentration), coenzyme (2×10^-3 M, […]), glucose-6-phosphoric acid (4×10^-3 M), and glucose-6-phosphoric acid dehydrogenase (4U/ml) were added and reacted under stirring at 37° C. for 30 min.\nThe compound that was dissolved in DMSO was added into the reaction mixture and the final concentration of MDSO was in the range of 0.1 to 0.55% by volume. Chloroform (5 ml) was then added into the reaction mixture to terminate the reaction and to allow for recovery of the H^14 COOH in a water layer. The collected water layer (0.1 ml) was added in liquid scintillation cocktail (Atomlight, duPont, 4 ml) to measure its radioactivity. 4-Hydroxyandrostenedione was used as a positive control."}, "mastocarcinoma": {"tested_on": "mastocarcinoma", "test": "Inhibition of tumor growth in rats with mastocarcinoma after 7,12-dimethylbenzanthracene", "type": "in vivo, Sprague-Dawley rats", "conditions": "Rattus norvegicus, 600 h, read-out: I.R. (inhibition rate of tumor growth)", "experimental": "Female Sprague-Dawley rates aged 50 days were orally given 7,12-dimethylbenzanthracene (15 mg/kg) and observed for two months. The rats that developed spontaneous mastocarcinoma were selected and divided into three groups of 15 animals.\nThe first group was administered daily an ip injection for 20 consecutive days in an amount of 20 mg/kg (body weight) of the compounds in a physiological salt solution (10 ml).\nThe second group was also treated in the same manner as the first group except that 4-hydroxyandrostenedione was used as a positive control.\nThe third group was administered only an amount of 10 ml of a physiological salt solution.\nAfter 5 days from the last injection, the rats were sacrificed to enucleate tumors.\nThe tumors were weighed and the mean tumor weight (T) of the first and the second groups was calculated. The mean tumor weight (C) of the third group was also calculated. […] [formula]"}, "[1]": {"conditions": "female Sprague-Dawley rats, daily ip 20 mg/kg for 20 consecutive days, tumors weighed 5 days after last injection"}, "[2]": {"conditions": "microsomes of human placenta, 0.1 mg/ml protein, substrate [19-14C]4-androstene-3,17-dione 1×10^-6 M, 37° C., 30 min, read-out: 50% inhibitory concentration (IC50) of the aromatase activity"}}, "note": "Read-outs that look alike come from different tables or passages of the source.", "data": [{"smiles": "OC1(Cn2ccnc2)CCCC1Cc1ccc(F)cc1F", "note": "(stereo not shown) [Comp. No. 10, 2-(2,4-Difluorobenzyl)-1-(imidazoly-1-yl-methyl)cyclopentanol]", "values": [{"measurement": "IC50", "setting": "aromatase", "value": 0.48, "unit": "µM"}, {"measurement": "inhibition in vivo at 20 mg/kg", "setting": "mastocarcinoma; [1]", "value": 85, "unit": "%"}]}, {"smiles": "CC(C)(C)c1ccc(CC2CCC(C)(C)C2(O)Cn2ccnc2)cc1", "note": "(stereo not shown) [compound 12]", "values": [{"measurement": "IC50", "setting": "aromatase", "value": 4.2, "unit": "µM"}, {"measurement": "inhibition in vivo at 20 mg/kg", "setting": "mastocarcinoma; [1]", "value": 73, "unit": "%"}]}, {"smiles": "CC(C)c1ccc(CC2CCCC2(O)Cn2cncn2)cc1", "note": "(stereo not shown) [compound 20]", "values": [{"measurement": "IC50", "setting": "aromatase", "value": 4.3, "unit": "µM"}, {"measurement": "inhibition in vivo at 20 mg/kg", "setting": "mastocarcinoma; [1]", "value": 60, "unit": "%"}]}, {"smiles": "CC1(C)CCC(Cc2ccc(C(F)(F)F)cc2)C1(O)Cn1ccnc1", "note": "(stereo not shown) [compound 19]", "values": [{"measurement": "IC50", "setting": "aromatase", "value": 5.5, "unit": "µM"}, {"measurement": "inhibition in vivo at 20 mg/kg", "setting": "mastocarcinoma; [1]", "value": 63, "unit": "%"}]}, {"smiles": "CC1(C)CCC(Cc2ccc(Cl)cc2)C1(O)Cn1ccnc1", "note": "(stereo not shown) [compound 16]", "values": [{"measurement": "IC50", "setting": "aromatase", "value": 0.3, "unit": "µM"}, {"measurement": "inhibition in vivo at 20 mg/kg", "setting": "mastocarcinoma; [1]", "value": 83, "unit": "%"}]}, {"smiles": "OC1(Cn2cncn2)CCCC1Cc1ccc(Cl)cc1", "note": "(stereo not shown) [compound 3]", "values": [{"measurement": "IC50", "setting": "aromatase", "value": 3.8, "unit": "µM"}, {"measurement": "inhibition in vivo at 20 mg/kg", "setting": "mastocarcinoma; [1]", "value": 64, "unit": "%"}]}, {"smiles": "OC1(Cn2cncn2)CCCC1Cc1ccc(F)cc1F", "note": "(stereo not shown) [Comp. No. 9, 2-(2,4-Difluorobenzyl)-1-(1,2,4-triazoly-1-yl-methyl)cyclopentanol]", "values": [{"measurement": "IC50", "setting": "aromatase", "value": 7.5, "unit": "µM"}, {"measurement": "inhibition in vivo at 20 mg/kg", "setting": "mastocarcinoma; [1]", "value": 72, "unit": "%"}]}, {"smiles": "CC1(C)CCC(Cc2ccc(-c3ccccc3)cc2)C1(O)Cn1ccnc1", "note": "(stereo not shown) [compound 8]", "values": [{"measurement": "IC50", "setting": "aromatase; [2]", "value": 4.1, "unit": "µM"}, {"measurement": "inhibition in vivo at 20 mg/kg", "setting": "mastocarcinoma; [1]", "value": 60, "unit": "%"}]}, {"smiles": "N#Cc1ccc(CC2CCCC2(O)Cn2cncn2)cc1", "note": "(stereo not shown) [compound 5]", "values": [{"measurement": "IC50", "setting": "aromatase", "value": 7.3, "unit": "µM"}, {"measurement": "inhibition in vivo at 20 mg/kg", "setting": "mastocarcinoma; [1]", "value": 60, "unit": "%"}]}, {"smiles": "N#Cc1ccc(CC2CCCC2(O)Cn2ccnc2)cc1", "note": "(stereo not shown) [compound 6]", "values": [{"measurement": "IC50", "setting": "aromatase; [2]", "value": 4.5, "unit": "µM"}, {"measurement": "inhibition in vivo at 20 mg/kg", "setting": "mastocarcinoma; [1]", "value": 53, "unit": "%"}]}, {"smiles": "CC1(C)CCC(Cc2ccc(C(F)(F)F)cc2)C1(O)Cn1cncn1", "note": "(stereo not shown) [compound 18]", "values": [{"measurement": "IC50", "setting": "aromatase", "value": 7.2, "unit": "µM"}, {"measurement": "inhibition in vivo at 20 mg/kg", "setting": "mastocarcinoma; [1]", "value": 65, "unit": "%"}]}, {"smiles": "CC1(C)CCC(Cc2ccc(Cl)cc2)C1(O)Cn1cncn1", "note": "(stereo not shown) [compound 15]", "values": [{"measurement": "IC50", "setting": "aromatase", "value": 4.7, "unit": "µM"}, {"measurement": "inhibition in vivo at 20 mg/kg", "setting": "mastocarcinoma; ip", "value": 74, "unit": "%"}]}, {"smiles": "OC1(Cn2ccnc2)CCCC1Cc1ccc(Cl)cc1", "note": "(stereo not shown) [compound 4]", "values": [{"measurement": "IC50", "setting": "aromatase", "value": 5, "unit": "µM"}, {"measurement": "inhibition in vivo at 20 mg/kg", "setting": "mastocarcinoma; [1]", "value": 74, "unit": "%"}]}, {"smiles": "CC(C)c1ccc(CC2CCC(C)(C)C2(O)Cn2ccnc2)cc1", "note": "(stereo not shown) [compound 14]", "values": [{"measurement": "IC50", "setting": "aromatase", "value": 6, "unit": "µM"}, {"measurement": "inhibition in vivo at 20 mg/kg", "setting": "mastocarcinoma; [1]", "value": 63, "unit": "%"}]}, {"smiles": "OC1(Cn2ccnc2)CCCC1Cc1ccc(F)cc1", "note": "(stereo not shown) [Comp. No. 2, 2-(-Fluorobenzyl)-1-(imidazoly-1-ylmethyl)cyclopentanol]", "values": [{"measurement": "IC50", "setting": "aromatase", "value": 7, "unit": "µM"}, {"measurement": "inhibition in vivo at 20 mg/kg", "setting": "mastocarcinoma; [1]", "value": 70, "unit": "%"}]}, {"smiles": "OC1(Cn2cncn2)CCCC1Cc1ccc(F)cc1", "note": "(stereo not shown) [Comp. No. 1, 2-(p-Fluorobenzyl)-1-(1,2,4-triazoly-1-yl-methyl)cyclopentanol]", "values": [{"measurement": "IC50", "setting": "aromatase", "value": 3.5, "unit": "µM"}, {"measurement": "inhibition in vivo at 20 mg/kg", "setting": "mastocarcinoma; [1]", "value": 60, "unit": "%"}]}, {"smiles": "CC(C)c1ccc(CC2CCCC2(O)Cn2ccnc2)cc1", "note": "(stereo not shown) [compound 21]", "values": [{"measurement": "IC50", "setting": "aromatase; [2]", "value": 6.3, "unit": "µM"}, {"measurement": "inhibition in vivo at 20 mg/kg", "setting": "mastocarcinoma; [1]", "value": 72, "unit": "%"}]}, {"smiles": "CC(C)(C)c1ccc(CC2CCC(C)(C)C2(O)Cn2cncn2)cc1", "note": "(stereo not shown) [compound 11]", "values": [{"measurement": "IC50", "setting": "aromatase", "value": 2.6, "unit": "µM"}, {"measurement": "inhibition in vivo at 20 mg/kg", "setting": "mastocarcinoma; [1]", "value": 71, "unit": "%"}]}, {"smiles": "CC1(C)CCC(Cc2ccccc2-c2ccccc2)C1(O)Cn1ccnc1", "note": "(stereo not shown) [compound 7]", "values": [{"measurement": "IC50", "setting": "aromatase; [2]", "value": 3.7, "unit": "µM"}, {"measurement": "inhibition in vivo at 20 mg/kg", "setting": "mastocarcinoma; [1]", "value": 58, "unit": "%"}]}, {"smiles": "CC1(C)CCC(Cc2ccc(F)cc2F)C1(O)Cn1ccnc1", "note": "(stereo not shown) [compound 17]", "values": [{"measurement": "IC50", "setting": "aromatase", "value": 0.4, "unit": "µM"}, {"measurement": "inhibition in vivo at 20 mg/kg", "setting": "mastocarcinoma; [1]", "value": 67, "unit": "%"}]}, {"smiles": "CC(C)c1ccc(CC2CCC(C)(C)C2(O)Cn2cncn2)cc1", "note": "(stereo not shown) [compound 13]", "values": [{"measurement": "IC50", "setting": "aromatase", "value": 8.4, "unit": "µM"}, {"measurement": "inhibition in vivo at 20 mg/kg", "setting": "mastocarcinoma; [1]", "value": 55, "unit": "%"}]}, {"smiles": "C[C@]12CCC(=O)C(O)=C1CC[C@@H]1[C@@H]2CC[C@]2(C)C(=O)CC[C@@H]12", "note": "[Control, 4-Hydroxyandrostenedione, reference compound]", "values": [{"measurement": "IC50", "setting": "aromatase", "value": 20, "unit": "µM"}]}]}
